Key:
[1] = target: H1N1 NA (A/California/04/2009) (Influenza A virus (A/California/04/2009(H1N1)), UniProt C3W5S3); test: biochemical; conditions: read-out: % Inhibition ± SE H1N1 NA
[2] = target: H5N1 NA (A/Anhui/1/2005) (Influenza A virus (A/Anhui/1/2005(H5N1)), UniProt A0A0C5AGB3); test: biochemical; conditions: read-out: % Inhibition ± SE H5N1 NA

Row | Structure (SMILES) | inhibition at 100 µg/mL [1] | inhibition at 100 µg/mL [2]
1 | COc1cc(/C=C/C(=O)c2ccc(O)cc2)ccc1OCc1ccccc1 [Compound 3c] | 2 ± 4% | 7 ± 8%
2 | COc1cc(C(=O)/C=C/c2ccc(OCc3ccccc3)c(OC)c2)ccc1O [Compound 2c] | 1 ± 4% | –
3 | O=C(/C=C/c1ccc([N+](=O)[O-])cc1)c1ccc(O)cc1 [Compound 2a] | 16 ± 2% | 21 ± 2%
4 | O=C(/C=C/c1ccc(F)cc1)c1ccc(OCc2ccccc2)cc1 [Compound 3b] | 2 ± 4% | 18 ± 3%
5 | CC(C)Oc1ccc(C(=O)/C=C/c2ccc(F)cc2)cc1 [Compound 1b] | 5 ± 8% | 0%
6 | O=C(O)c1ccc(/C=C/C(=O)c2ccc(O)cc2)cc1 [Compound 3a] | 19 ± 2% | 27%
7 | COc1cc(C=O)ccc1O [Vanillin, reference compound] | 86 ± 2% | 84 ± 4%
8 | O=C(/C=C/c1ccc([N+](=O)[O-])cc1)c1ccc(OC2CCCC2)cc1 [Compound 4b] | 5 ± 5% | 15 ± 3%
9 | O=C(/C=C/c1ccc(F)cc1)c1ccc(O)cc1 [Compound 1a] | 21 ± 7% | 23 ± 11%

Reference: PMC8445792 (Applied Biological Chemistry, 2021)
